Consider 64 compounds from a melting point compilation (Tetko et al.; mined from patent text by program, amines drawn as free bases though some values may be those of a salt).

Some results are limits rather than exact numbers.

Consider `CCc1ccc2c(c1)C(=O)c1ccc(-c3nnn[nH]3)cc1S2(=O)=O`, for which the melting point – broadly, the temperature of the solid-liquid transition – turned out to be 239 °C.

In turn, `COc1ccccc1C=C1CS(=O)(=O)CC(=Cc2ccccc2OC)C1=O` came in with a melting point of 198 to 200 °C.

`CCOC(=O)c1csc([N+](=O)[O-])c1Br` displayed a melting point of 94 to 95 °C.

The compound `CN1CN(C)c2nc3n(Cc4ccc(F)cc4)c(=O)cc(O)n3c2C1=O` gave a melting point of 214 to 232 °C.

In the case of `COCOc1c(Br)cccc1-c1ccc2c(c1)C(C)(C)CCC2(C)C`, the melting point was 74 °C.

Consider `CCS(=O)(=O)NC1CCCCc2ccc(F)cc21` (centres undefined), for which the melting point is 118 to 121 °C.

With `NCC(=O)c1cccc2c(S(=O)(=O)n3c(CCC(=O)O)cc4cc(Cl)ccc43)cccc12`, the melting point fell in the range of 130 to 135 °C.

Consider `COC(=O)Cc1c(OC)ncnc1Oc1cccc(C(C)=O)c1`, for which the melting point fell in the range of 65 to 67 °C.

The compound `CC(C)ON=Cc1cc(-n2c(=O)cc(C(F)(F)F)[nH]c2=O)ccc1Cl` registered a melting point of 191 to 193 °C.

`O=S1(=O)N=CN(C2CCC2)c2cc(Cl)c(Cl)cc21` had a melting point of 238 to 240 °C.

In turn, `CCSc1cc(C)nc(SCC)c1NC(=O)CCCCCCCSc1nc2cccc(C(F)(F)F)c2o1` showed a melting point of 99 to 100 °C.

With `COC(=O)C=Cc1ccc(OCCn2c(=O)sc3cc(C(=O)c4ccccc4)ccc32)cc1`, the melting point is 144 to 146 °C.

The compound `CC(=O)OCC1Cc2cc(I)ccc2N1` (centres undefined) returned a melting point of 64 to 66 °C.

The compound `COc1ccc(C[C@H](N)[C@H](O)c2ccc(F)cc2)cc1` (racemic) displayed a melting point of 78 to 79 °C.

Compound `COC(=O)c1ccccc1S(=O)(=O)N1CCC2(C=Cc3ccccc32)CC1` yielded a melting point of 150 to 152 °C.

As for `CNc1cc(F)ccc1C(=O)CS(C)(=O)=O`, the melting point fell in the range of 144 to 145 °C.

In turn, `OC[C@@H]1O[C@H]1C#CC#CC#Cc1ccccc1` (relative stereo) showed a melting point of 68 to 70 °C.

With `CCCCn1c(=O)cnn(-c2ccc(N3CCN(c4ccc(OC)cc4)CC3)cc2)c1=O`, the melting point is 181 °C.

In turn, `CN1CCN(C2=Nc3ccccc3N(C=O)c3ccncc32)CC1` returned a melting point of 196 °C.

Consider `CCC(C)NC(C(=O)O)C(C)C` (centres undefined), for which the melting point is more than 300 °C.

For the compound `[N-]=[N+]=Nc1ccc(S(=O)(=O)NCCCCCC(=O)O)cc1`, the melting point was 126 to 127 °C.

`COC(=O)C(NS(=O)(=O)c1ccc(-c2ccc(NC(=O)c3oc4cccc(C(C)OC)c4c3C)cc2)cc1)C(C)C` (centres undefined) registered a melting point of 186 to 188 °C.

`O=Cc1cn(-c2cccnc2)nc1-c1ccc([N+](=O)[O-])o1` showed a melting point of 237 to 238 °C.

As for `CCCc1nc2c(N)nc3ccccc3c2n1OCC(N)=O`, the melting point was 192 to 194 °C.

As for `O=c1ccc(S(=O)(=O)c2oc3ccccc3c2-c2ccccc2)n[nH]1`, the melting point is more than 220 °C.

With `COc1ccc(C(=O)Nc2c(Cl)cncc2Cl)c2c1[nH]c1ccc(Cl)cc12`, the melting point was more than 359 °C.

The compound `N#Cc1c(Cl)n(C2OC(CF)C(O)C2O)c2cc(Cl)c(Cl)cc12` (centres undefined) had a melting point of 246 to 247 °C.

Compound `O=C1NCc2c1cc1ccc3c(c1c2-c1ccccc1)OCO3` returned a melting point of 290 to 292 °C.

The compound `Cc1[nH]c(=O)[nH]c1C(=O)C=Cc1ccccc1` registered a melting point of 299 °C.

Compound `C[C@@H]1Cc2cc(Cl)ccc2O[C@H]1c1ccc(Cl)cc1` (relative stereo) returned a melting point of 135 to 137 °C.

Take `CC(C)CNC(=O)c1c[nH]c2ncc(-c3nn(C)c4cc(F)ccc34)nc12`: the melting point was 285 to 287 °C.

Compound `CCc1nn2c(N)c3c(nc2c1S(=O)(=O)c1ccccc1)CCC3` displayed a melting point of more than 230 °C.

Turning to `COc1ccc(Nc2ccc(CO)cc2)cc1`, the melting point came to 110 °C.

On to `O=C(NC(=O)c1ccc2ncccc2c1)NC1CCN(Cc2ccc3ncccc3c2)CC1`, for which the melting point was 202 to 204 °C.

`CCN(CC)c1ccc(CNc2cc(C(=O)Nc3ccccc3)ccc2OC)cc1` displayed a melting point of 180 to 181 °C.

`COc1cc(Sc2ccncc2)cc2ccoc12` yielded a melting point of 81 to 83 °C.

`O=c1c2c(c3cccnc3n1-c1ccccc1)OC(CO)C2` (centres undefined): the melting point lay in the range of 267 to 268 °C.

Regarding `Cn1nccc1-n1ccnc1S(N)(=O)=O`, the melting point was 230 to 233 °C.

As for `O=C(O)CNC(=O)CCCc1ccccc1`, the melting point was 99 to 101 °C.

Compound `O=C(C#Cc1ccc(CN2CCCCC2)cc1)Nc1ccc(-c2ccc(Cl)cc2)cc1` came in with a melting point of 180 °C.

In turn, `Cc1ccc(S(=O)(=O)N2CCN(S(=O)(=O)c3ccc(C)cc3)CC3CCC(CN(S(=O)(=O)c4ccc(C)cc4)CC2)O3)cc1` registered a melting point of 175 to 178 °C.

Turning to `COc1ccsc1C(=O)C=C(C)C`, the melting point was in the range of 49 to 51 °C.

In turn, `Cc1ccc2cccc(OCc3cccc(N)c3C)c2n1` returned a melting point of 223 to 227 °C.

Compound `Cc1cc2c(cc1C)C(C(F)(F)F)(C(F)(F)F)c1cc3c(cc1O2)Oc1cc(C)c(C)cc1C3(C(F)(F)F)C(F)(F)F` gave a melting point of 242 to 243 °C.

For the compound `COc1ccc(OCC(O)CNCCNc2c(C)c(=O)n(C)c(=O)n2C)cc1` (centres undefined), the melting point was 115 to 117 °C.

`NC(=O)N1CCC(c2nn(-c3ccc(C(F)(F)F)cc3)c3ccc(F)cc23)CC1`: the melting point lay within 172 to 174 °C.

In the case of `CC(C)C(=O)N1N=Cc2ccccc2C1C#N` (centres undefined), the melting point lay within 144 to 146 °C.

The compound `Cc1cc(Oc2ccc(C#N)cc2C(F)(F)F)n[nH]1` came in with a melting point of 123 to 125 °C.

In turn, `CCOCC(=O)Nc1nc2ccccc2s1` returned a melting point of 113 to 114 °C.

In turn, `CC(=O)c1cnc2onc(C)c2c1Cl` came in with a melting point of 63 °C.

`O=C1Nc2ccccc2SC(c2ccccc2)=C1Cl` registered a melting point of 239 to 241 °C.

For `CN(C)c1ncc(O)c(-c2ccc(Cl)c(Cl)c2)n1`, the melting point is 188 to 189 °C.

`Cc1ccc(-n2cc(CCCO)c(C(C)C)n2)nc1` showed a melting point of 82 to 83 °C.

In the case of `O=C(Nc1cc(-c2nc(-c3ccccc3)c[nH]2)ccn1)c1ccccc1`, the melting point lay within 265 to 267 °C.

For the compound `O=C(O)c1csc(-c2ccc3cc(O)c(C45CC6CC(CC(C6)C4)C5)cc3c2)c1`, the melting point was 312 to 314 °C.

In turn, `COc1cc2c(OC)c3c(c(-c4ccc5c(c4)OCO5)c2cc1OC)C(=O)OC3` displayed a melting point of 256 to 258 °C.

Compound `Cc1cccc([C@H]2[C@H](C(=O)Nc3ccc(F)c(F)c3)C2(C)C)c1` (relative stereo) returned a melting point of 110 to 113 °C.

In turn, `COCC#Cc1ncn2c1CN(C)C(=O)c1c(Cl)cccc1-2` came in with a melting point of 154 to 156 °C.

As for `CCn1ncc2c3noc(-c4ccc(F)cc4)c3cnc21`, the melting point lay within 222 to 223 °C.

`C#CCN(C(=O)c1cnccc1C(F)(F)F)S(=O)(=O)c1cccc(C)c1` gave a melting point of 111 to 114 °C.

Take `COc1cc2c(Nc3ccc(Cl)cc3F)ncnc2cc1OCc1ccccn1`: the melting point fell in the range of 215 to 218 °C.

As to `N#Cc1ccc(-c2cnc(-c3ccc(C#N)cc3)cn2)cc1`, the melting point is more than 300 °C.

As for `CC(=O)CCOc1c(-c2ccc(S(C)(=O)=O)cc2)cnn(-c2ccc(F)cc2)c1=O`, the melting point is 133 to 136 °C.

Consider `CC(C)C[C@H](NS(=O)(=O)c1cccc2ccccc12)C(=O)N[C@H]1CCCOC1O` (some centres undefined), for which the melting point lay within 159 to 161 °C.
